Results published in US20210267989A1, “Novel Compounds for the Treatment, Alleviation or Prevention of Disorders Associated with Tau Aggregates” (AC Immune SA, priority 2018, published 2021).
Counter-ions that a name gives are not always drawn.

What was measured:
[1] = biological target: T1, recombinant full-length (fl)Tau aggregates (longest isoform of human Tau, 2N4R; 441 amino acids) (Homo sapiens, UniProt P10636); experiment: Full-length Tau (flTau) disaggregation assay by Thioflavin T (ThT); format: biochemical; conditions: ThT fluorescence; 2 μM flTau aggregates, 30 minutes at RT
T1 construct: 35 μM of recombinant full-length (fl)Tau in PBS were aggregated for 24 hours; made in house; host or cells: bacteria
Experimental: Full-Length Tau (flTau) Disaggregation Assay by Thioflavin T (ThT)
The longest isoform of human Tau (2N4R; 441 amino acids) was expressed in bacteria and purified. For the Tau disaggregation assay by ThT, 35 μM of recombinant full-length (fl)Tau in PBS were aggregated for 24 hours at 37° C. in presence of 50 μM of heparin (Sigma-Aldrich) and 10 mM of DTT (Sigma-Aldrich) under shaking at 750 RPM. Compounds were dissolved in anhydrous dimethyl sulfoxide (DMSO, Sigma-Aldrich) to reach a concentration of 10 mM. flTau aggregates and serial dilutions of compounds were mixed together in PBS (volume 50 μL) to a final concentration of 2 μM of flTau aggregates and from 160 to 0.04 μM of compounds. The mixture was incubated for 30 minutes at room temperature (RT), then 40 μL of this mixture were transferred into a black 384-well plate assay (Perkin-Elmer) and mixed with 10 μL of 100 μM ThT in 250 mM glycine (both from Sigma-Aldrich) in PBS. Fluorescence (relative fluorescence units; RFU) was measured in monoplicate or duplicate on a Tecan reader (excitation: 440 nm; emission: 485 nm). Percentage of flTau disaggregation was then calculated and the half maximal effective concentration (EC50) was determined using GraphPad Prism version 5 (GraphPad Software) assuming a one-binding site fitting model.

[2] = biological target: T2, Tau K18 fragment aggregates (amino acids 244 to 372 of human Tau441) (Homo sapiens, UniProt P10636); experiment: Tau K18 disaggregation assay by ThT; format: biochemical; conditions: ThT fluorescence; 2 μM K18 aggregates, 30 minutes at RT
T2 construct: encompassing amino acids 244 to 372 of the longest isoform (2N4R) of human Tau441; host or cells: bacteria
Experimental: Tau K18 Disaggregation Assay by ThT
The Tau K18 fragment, encompassing amino acids 244 to 372 of the longest isoform (2N4R) of human Tau441, was expressed in bacteria and purified or bought from SignalChem. For the K18 disaggregation assay by ThT, 35 μM of recombinant K18 in PBS were aggregated for 24 hours at 37° C. in presence of 50 μM of heparin (Sigma-Aldrich) and 10 mM of DTT (Sigma-Aldrich) under shaking at 750 RPM. Compounds were dissolved in anhydrous dimethyl sulfoxide (DMSO, Sigma-Aldrich) to reach a concentration of 10 mM. K18 aggregates and serial dilutions of compounds were mixed together in PBS (volume 50 μL) to a final concentration of 2 μM of K18 aggregates and from 160 to 0.04 μM of compounds. The mixture was incubated for 30 minutes at room temperature (RT), then 40 μL of this mixture were transferred into a black 384-well plate assay (Perkin-Elmer) and mixed with 10 μL of 100 μM ThT in 250 mM glycine (both from Sigma-Aldrich) in PBS. Fluorescence (relative fluorescence units; RFU) was measured in monoplicate or duplicate on a Tecan reader (excitation: 440 nm; emission: 485 nm). Percentage of K18 disaggregation was then calculated and half maximal effective concentration (E050) was determined using GraphPad Prism version 5 (GraphPad Software) assuming a one-binding site fitting model.

[3] = biological target: T3, Aggregated human Tau in human neuroblastoma cell line overexpressing full-length human Tau P301L (Homo sapiens, UniProt P10636, P618L); experiment: Reduction of intracellular Tau aggregation (AlphaLISA, aggregated Tau normalized to total Tau); format: cell-based; conditions: compound at 5 μM, 24 h, relative to DMSO-treated cells
T3 construct: overexpressing the full-length form of human Tau carrying the P301L mutation; expressed in transfected cells; host or cells: human neuroblastoma cell line (G418 selection)
Experimental: Reduction of Intracellular Tau Aggregation
A human neuroblastoma cell line overexpressing the full-length form of human Tau carrying the P301L mutation was cultured in complete medium [DMEM-F12 4.5 g/L Glutamax (Invitrogen), 15% FBS (Biochrom), 1% Peni/Strep (Invitrogen) supplemented with 2.5 μg/ml of G418 (Sigma-Aldrich) selection antibiotic]. The day before the experiment 5×10^5 cells/well were plated in a 6 well plate in 3 mL of complete medium. The next day, cells were incubated with DMSO or a compound of the present invention at 5 μM for additional 24 h at 37° C. After incubation, cells were trypsinized, resupsended in 100 μl of homogenization buffer [25 mM Tris-HCl pH 7.4, 150 mM NaCl, 1 mM EDTA, 1 mM EGTA containing phosphatase inhibitors (30 mM NaF, 0.2 mM Na3VO4, 1 nM okadaic acid, 1 mM PMSF, 5 mM Na4P2O7) and protease inhibitor cocktail (Complete™, Roche)], and then physically lysed with three rapid cycles of freezing and thawing. Samples were then directly tested in the AlphaLISA assay.
Phosphorylated, aggregated, and total Tau were quantified by AlphaLisa using the following antibody pairs: • HT7-Acceptor beads+biotin (BT)-Tau13-Donor beads: Total Tau • HT7-Acceptor beads+biotin (BT)-HT7-Donor beads: Aggregated human Tau
The Tau13 (Abcam) was biotinylated using EZ-Link® NHS-PEO Solid Phase biotinylation kit (Thermo Scientific), while the HT7-biotin was from a commercial source (Thermo Scientific).
For each antibody pairs the concentration of acceptor beads and biotinylated antibodies was optimized. All samples were first tested in a dilution series in PBS in order to identify the linear range and optimal dilution for each sample and assay. For the final protocol, the following reagents were added in a 384-well white OptiPlate (PerkinElmer): • 5 μL of test diluted sample • 20 μL of the mixture biotin-mAb acceptor beads at the following final concentrations: • HT7-BT at 1.25 nM in combination with HT7-Acc beads at 10 μg/ml • Tau13-BT at 5 nM in combination with HT7-Acc beads at 2.5 μg/ml
After incubation of this mixture at room temperature for 1 h, 25 μL of Streptavidin Donor beads (Perkin Elmer) at 25 μg/mL were added in the dark. Plates were analyzed after 30 min incubation using the EnSpire Alpha instrument and EnSpire Workstation version 3.00. Data for aggregated Tau were normalized to total Tau and then expressed as percentage of the DMSO-treated cells.

T2 sequence (P10636 561-689): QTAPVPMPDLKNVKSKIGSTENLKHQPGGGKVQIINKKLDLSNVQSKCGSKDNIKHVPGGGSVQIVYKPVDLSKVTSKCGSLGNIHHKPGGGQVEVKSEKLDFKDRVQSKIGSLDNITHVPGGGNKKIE
T3 sequence (P10636 1-441 isoform P10636-8 P301L): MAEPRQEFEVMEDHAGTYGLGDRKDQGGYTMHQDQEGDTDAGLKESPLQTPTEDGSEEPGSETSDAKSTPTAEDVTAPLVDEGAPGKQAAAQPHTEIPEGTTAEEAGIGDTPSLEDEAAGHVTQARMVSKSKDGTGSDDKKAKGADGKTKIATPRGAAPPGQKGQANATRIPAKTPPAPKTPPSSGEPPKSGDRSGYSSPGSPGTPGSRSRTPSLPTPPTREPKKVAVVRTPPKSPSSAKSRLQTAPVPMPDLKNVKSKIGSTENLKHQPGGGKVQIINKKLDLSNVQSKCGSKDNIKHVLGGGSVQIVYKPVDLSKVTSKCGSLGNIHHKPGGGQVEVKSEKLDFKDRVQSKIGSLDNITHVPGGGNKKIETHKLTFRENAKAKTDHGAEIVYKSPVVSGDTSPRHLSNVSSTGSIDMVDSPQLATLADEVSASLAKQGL
T1 sequence (P10636 1-441 isoform P10636-8): as the sequence (P10636 1-441 isoform P10636-8 P301L) above, with L301P counted along it

| SMILES | EC50 [1] [µM] | EC50 [2] [µM] | % Reduction of intracellular Tau aggregation [3] |
| --- | --- | --- | --- |
| Fc1ccc2c3c([nH]c2c1)CN(c1ccc(N2CCOCC2)nc1)CC3 [Example 108 HCl] | < 10 |  |  |
| c1ccc2c3c([nH]c2c1)CN(c1ccc(N2CC4COCC4C2)nc1)CC3 (stereo not drawn) [Example 69 HCl] | < 10 |  |  |
| C[C@@H]1CN(c2ccc(N3CCc4c([nH]c5ccccc45)C3)cn2)CCO1 [Example 75 HCl] | < 10 |  |  |
| CN(C)c1nc2cc(N3CCc4c(n(C)c5ccc(F)cc45)C3)ccc2o1 [Example 13] | < 10 |  |  |
| C[C@H]1COCCN1c1ccc(N2CCc3c([nH]c4ccccc34)C2)cn1 [Example 79 HCl] | 10 to 25 |  |  |
| Cn1c2c(c3ccc(F)cc31)CCN(c1ccc(N3CCOCC3)nc1)C2 [Example 110 HCl] | < 10 |  |  |
| Cn1c2c(c3ccccc31)CCN(c1ccc3nc(N4CCOCC4)sc3c1)C2 [Example 1] | < 10 |  |  |
| Cn1c2c(c3ccccc31)CCN(c1ccc(N3CCOCC3)cn1)C2 [Example 45] |  | < 10 | ++ (++ % 50 < x < 25) |
| C[C@H]1CN(c2ccc(N3CCc4c([nH]c5ccccc45)C3)cn2)CCO1 [Example 74 HCl] | < 10 |  |  |
| COc1ccc2c(c1)c1c(n2C)CN(c2ccc3nc(N4CCOCC4)sc3c2)CC1 [Example 15] | < 10 |  |  |
| CCn1c2c(c3ccccc31)CCN(c1ccc(N3CCOCC3)nc1)C2 [Example 123 HCl] | < 10 |  |  |
| COc1ccc2c(c1)c1c(n2C)CN(c2ccc3oc(N4CCOCC4)nc3c2)CC1 [Example 16] | < 10 |  |  |
| c1ccc2c3c([nH]c2c1)CN(c1ccc(N2CCOCC2)nc1)CC3 [Example 44 HCl] | < 10 |  |  |
| c1ccc2c3c([nH]c2c1)CN(c1ccc(N2CC4(CCOCC4)C2)nc1)CC3 [Example 80 HCl] | 10 to 25 |  |  |
| Cn1c2c(c3cc(F)cnc31)CCN(c1ccc(N3CCOCC3)cn1)C2 [Example 107 HCl] | 25 to 50 |  |  |
| Cn1c2c(c3ccc(F)cc31)CCN(c1ccc3nc(N4CCOCC4)sc3c1)C2 [Example 6] | < 10 |  |  |
| COc1cc(N2CCc3c(n(C)c4ccc(F)cc34)C2)ccc1F [Example 9] | < 10 |  |  |
| Cn1c2c(c3ccccc31)CCN(c1ccc(N3CCOCC3)nc1)C2 [Example 46 HCl] | 10 to 25 |  |  |
| Cn1c2c(c3cc(F)ccc31)CCN(c1ccc3oc(N4CCOCC4)nc3c1)C2 [Example 104] | < 10 |  |  |
| c1ccc2c3c([nH]c2c1)CN(c1ccc(N2CC4CC(C2)O4)nc1)CC3 [Example 71 HCl] | 10 to 25 |  |  |
| Cn1c2c(c3cc(F)ccc31)CCN(c1ccc(N3CCOCC3)nc1)C2 [Example 8] | < 10 |  |  |
| CN(C)c1nc2ccc(N3CCc4c(n(C)c5ccccc45)C3)cc2s1 [Example 2] | < 10 |  |  |

| SMILES | EC50 [1] [µM] | EC50 [2] [µM] | % Reduction of intracellular Tau aggregation [3] |
| --- | --- | --- | --- |
| c1ccc2c3c([nH]c2c1)CN(c1ccc2nc(N4CCOCC4)sc2c1)CC3 [Example 38] |  | < 10 | + (+ % 25 < x < 10) |
| COc1ccc2c(c1)c1c(n2C)CN(c2ccc3sc(N4CCOCC4)nc3c2)CC1 [Example 14] | < 10 |  |  |
| C[C@@H]1CN(c2ccc(N3CCc4c([nH]c5ccccc45)C3)cn2)C[C@H](C)O1 [Example 76 HCl] | < 10 |  |  |
| CN(C)c1nc2cc(N3CCc4c(n(C)c5ccc(F)cc45)C3)ccc2s1 [Example 11] | < 10 |  |  |
| c1ccc2c3c([nH]c2c1)CN(c1ccc(N2CCC4(CC2)COC4)nc1)CC3 [Example 83 HCl] | 25 to 50 |  |  |
| COc1ccc2c(c1)c1c(n2C)CN(c2ccc3nc(N(C)C)sc3c2)CC1 [Example 18] | < 10 |  |  |
| Cn1c2c(c3ccc(F)cc31)CCN(c1ccc(N3CCOCC3)cn1)C2 [Example 111 HCl] | < 10 |  |  |
| COc1ccc2c(c1)c1c(n2C)CN(c2ccc3nc(N(C)C)oc3c2)CC1 [Example 19] | < 10 |  |  |
| Cn1c2c(c3ccc(F)cc31)CCN(c1ccc3sc(N4CCOCC4)nc3c1)C2 [Example 7] | < 10 |  |  |
| Fc1ccc2c3c([nH]c2c1)CN(c1ccc(N2CCOCC2)cn1)CC3 [Example 109 HCl] | < 10 |  |  |
| COc1ccc2c(c1)c1c(n2C)CN(c2ccc3sc(N(C)C)nc3c2)CC1 [Example 17] | < 10 |  |  |
| Cn1c2c(c3ccccc31)CCN(c1ccc(N3CCOCC3)cn1)C2 [Example 45 HCl] | < 10 |  |  |
| CN(C)c1nc2ccc(N3CCc4c(n(C)c5ccc(F)cc45)C3)cc2o1 [Example 12] | < 10 |  | + (+ % 25 < x < 10) |
| c1ccc2c3c([nH]c2c1)CN(c1ccc(N2C[C@@H]4C[C@H]2CO4)nc1)CC3 [Example 86 HCl] | < 10 |  |  |
| c1ccc2c3c([nH]c2c1)CN(c1ccc(N2C[C@H]4C[C@@H]2CO4)nc1)CC3 [Example 85 HCl] | 10 to 25 |  |  |
| Cn1c2c(c3cccnc31)CCN(c1ccc(N3CCOCC3)nc1)C2 [Example 105 HCl] | 25 to 50 |  |  |
| CN(C)c1nc2ccc(N3CCc4c([nH]c5ccc(F)cc45)C3)cc2s1 [Example 26] |  | < 10 |  |
| COc1ccc2c(c1)c1c(n2C)CN(c2ccc3nc(N4CCOCC4)oc3c2)CC1 [Example 20] |  | < 10 |  |
| C[C@@H]1COCCN1c1ccc(N2CCc3c([nH]c4ccccc34)C2)cn1 [Example 78] |  | < 10 |  |
| COc1ccc2c(c1)c1c(n2C)CN(c2ccc3oc(N(C)C)nc3c2)CC1 [Example 21] |  | < 10 | + (+ % 25 < x < 10) |
| c1ccc2c3c([nH]c2c1)CN(c1ccc(N2CCOCC2)cn1)CC3 [Example 43] |  | < 10 | ++ (++ % 50 < x < 25) |
